Test results from EP1914304A1 (priority 1998, dated 1999).

Columns and labels:
[1] = biological target: gmk/TK-fl fusion protein (murine guanylate kinase fused to the entire wild-type HSV-1 TK; pET23d:gmk/TK-fl) (UniProt P0DTH5+Q64520); details: Table X; purified from E. coli
[2] = biological target: gmk/TK-trunc fusion protein (murine guanylate kinase fused to wild-type HSV-1 TK without its first nine amino acids; pET23d:gmk/TK-trunc) (UniProt P0DTH5+Q64520); details: Table X; purified from E. coli
[3] = biological target: T1, HSV-1 thymidine kinase mutant 75 (LIF-ALL library, codons 159-161 and 168-170 randomized; pET23d:75) (Human herpesvirus 1, UniProt P0DTH5); details: Table V
T1 sequence (P0DTH5 1-376): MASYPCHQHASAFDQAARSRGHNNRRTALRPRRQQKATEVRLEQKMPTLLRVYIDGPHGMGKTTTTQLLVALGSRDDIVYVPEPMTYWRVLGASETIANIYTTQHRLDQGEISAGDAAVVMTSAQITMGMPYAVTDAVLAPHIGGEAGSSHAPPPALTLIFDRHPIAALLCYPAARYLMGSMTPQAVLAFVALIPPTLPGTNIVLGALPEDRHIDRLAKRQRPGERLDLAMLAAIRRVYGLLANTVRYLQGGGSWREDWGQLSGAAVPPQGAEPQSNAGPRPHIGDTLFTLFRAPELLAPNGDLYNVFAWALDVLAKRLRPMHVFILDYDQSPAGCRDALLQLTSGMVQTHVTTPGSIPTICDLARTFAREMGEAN
Description: The culture is incubated at 37°C overnight. The following day the 5ml culture is used to inoculate 1L M9ZB + cabenicillin at 20µg/ml and the culture allowed to grow at 37°C to OD600 0.1. At that point IPTG is added to 0.4mM and the culture incubated a further 3 hours. The cells are chilled on ice, pelleted by centrifugation and the pellets washed once in cell wash buffer (50mM Tris, pH 7.5, 5mM EDTA, 10% sucrose) prior to freezing the pellets at -70°C. The next day the cells are resuspended in 12ml Buffer 1 (50mM Tris, pH 7.5, 10% sucrose, 2mM DTT, 5mM EDTA, 1mM PMSF) and the volume split into two 13ml Oakridge ultracentrifuge tubes. 1ml Buffer 1 containing 3mg lysozyme is added to each tube and the tubes left on ice for 1 hr. […] The cleared supernatant is then aliquoted and frozen at -70°C.
The 1ml bed volume column is prepared by passing 10ml Buffer 1 followed by 10ml Absorption Buffer (50mM Tris, pH 7.5, 10% sucrose, 2mM DTT, 25mM MgAc2, 10mM ATP) over the column. Two ml of the cleared lysate is mixed with 2 ml of Absorption Buffer and passed through a 0.2µm filter. This mix is passed over the column 3 times. The column is washed with 5ml Absorption buffer three times and the 5ml fractions collected. […] The column is reactivated by loading on 10ml High Salt Buffer (50mM Tris, pH 7.5, 10% sucrose, 2mM DTT, 0.5M KCl) and 10ml 50mM Tris, pH 7.5. The column is stored in 50mM Tris pH 7.5 + 0.004% sodium azide. The extent of purification is monitored by Coomassie stained SDS:PAGE analysis and the concentration of purified protein determined using the BioRad Reagent (Bradford Reagent).
Km and Vmax values are determined from double reciprocal plots and kcat values are calculated using the equation Vmax = kcat [Eo] where [Eo] is the total enzyme concentration. The BioRad reagent was used to determine the total enzyme concentration of purified thymidine kinase enzymes.

[4] = system: ts13 BHK tk- cells transfected with pCMV:30 (HSV-1 TK mutant 30); assay: Cell killing by GCV and ACV, Alamar Blue viability (ED50); type: cell-based, baby hamster; details: Mesocricetus auratus, 96 h; effective dose for 50% cell killing, after 4 days on nucleoside analog, pooled G418 resistant clones
Description: (§1) Briefly, the cell transfections are performed as follows. Approximately 5 x 10^5 ts13 BHK tk cells (ATCC CRL-1632) are plated on 100mm dishes in DMEM + 10% calf serum. For each transfection 1 µg of pSV2neo and 10µg of a pCMV construct (pCMV, pCMV:TK-wrong (HSVTK in the wrong orientation relative to the promoter), pCMV:HSVTK, pCMV:30, pCMV:75 or pCMV:132 DNA) in 0.25M CaCl2 are mixed with 0.5ml 2 x BBS (see Chen and Okayama) and preincubated at 37°C at 2.5% CO2 for […]. The CaCl2/DNA mix is added dropwise to the plates and mixed in well. After a 24 hour incubation at 37°C in a 2.5% CO2 wet incubator, the cells are rinsed twice with Dulbecco PBS minus Ca/Mg and fed with fresh DMEM + 10% calf serum. Plates are incubated at 37°C with 6% CO2. After 72 hours post-transfection the cells are split 1:3 and plated in DMEM + 10% calf serum containing G418 at 600µg/ml.
(§2) The cells are selected on G418 (600µg/ml) at 37°C for 17 days. […]. Approximately 30-40 clones are selected in this manner for each transfected DNA containing a tk gene in the correct orientation. The pCMV and pCMV:TK-wrong transfections yielded between 130 and 140 clones each. G418 resistant clones are harvested, pooled and plated at a density of 2000 cells/well in 100µl DMEM + 10% calf serum and 200µg/ml G418 + 6% CO2 in 96 well microtiter plates. […]. After three days in the presence of the nucleoside analog, Alamar Blue is added and 6 hours later the plates are scanned using a fluorometer as according to the manufacturer's protocol (Alamar Biosciences, Inc., Sacramento, CA). The plates are incubated a further 24 hours at 37°C and scanned again.
(§3) Determination of the fluorescence level of cells incubated in the presence of Alamar Blue directly relates to cell viability.

[5] = system: ts13 BHK tk- cells transfected with pCMV:132 (HSV-1 TK mutant 132); assay: as above; type: cell-based, baby hamster; details: Mesocricetus auratus, 96 h; effective dose for 50% cell killing, after 4 days on nucleoside analog, pooled G418 resistant clones
Description: as §1, §2, §3

[6] = system: ts13 BHK tk- cells transfected with pCMV:HSVTK (wild-type HSV-1 TK); assay: as above; type: cell-based, baby hamster; details: Mesocricetus auratus, 96 h; effective dose for 50% cell killing, after 4 days on nucleoside analog, pooled G418 resistant clones
Description: as §1, §2, §3

[7] = system: ts13 BHK tk- cells transfected with pCMV:75 (HSV-1 TK mutant 75); assay: as above; type: cell-based, baby hamster; details: Mesocricetus auratus, 96 h; effective dose for 50% cell killing, after 4 days on nucleoside analog, pooled G418 resistant clones
Description: as §1, §2, §3

[8] = system: rat C6 glioblastoma cells transfected with TK mutant SR39, subcutaneous tumor; assay: Mouse xenograft tumor model with prodrug treatment; type: in vivo, Nude mice; details: prodrug twice a day for 5 days from day 5; Figures 32-34
Description: (§4) Rat C6 glioblastoma cells were transfected with the stable expression vector pREP8D7:dualGFP as described above containing various TK mutants. […] Experiments were carried out to establish prodrug dosing levels for tumor ablation and efficacy of therapy. Nude mice (JAX Labs, Bar Harbor, Maine) were injected subcutaneously with 0.5 x10^6 transfected rat C6 cells. After 5 days, prodrugs (ACV and GCV) were administered twice a day for a further 5 days. Prodrug was given at either of two concentrations (shown as mg/kg). During this period and for an additional 6 days, tumor size was monitored by caliper measurement every other day. At the end of the period, mice were sacrificed and the tumors excised and weighed.

[9] = system: rat C6 glioblastoma cells transfected with TK mutant 30, subcutaneous tumor; assay: Mouse xenograft tumor model with prodrug treatment; type: in vivo, Nude mice; details: prodrug twice a day for 5 days from day 5; Figures 32-34
Description: as §4

[10] = system: Rat C6 cells expressing wild-type TK; assay: Rat C6 kill curves with GCV and ACV; type: cell-based; details: Table VIII
Source text: (§5) The seven mutants were subcloned into the mammalian expression vector, pREP8D7:dualGFP. This vector contains a constitutive metallothionin promoter, which drives the expression of green flourescent protein (GFP), and an RSV LTR promoter, which stimulated expression of the TK mutants. The vector also contains a histidinol resistance gene for selection of transformants. Purified vector DNA of these constructs was used to transfect BHK tk- cells by electroporation. The transfectants were selected by resistance to histidinol and sorted using FACS analysis for GFP expression. Pools of transfectants were then assayed for sensitivity to GCV or ACV over a range of prodrug doses. […] Table VIII illustrates the IC50 values from Rat C6 kill curves with the SR11, SR26, and SR39 mutants.

[11] = system: Rat C6 cells expressing TK mutant SR26; assay: Rat C6 kill curves with GCV and ACV; type: cell-based; details: Table VIII
Source text: as §5

[12] = system: Rat C6 cells expressing TK mutant 411; assay: Rat C6 kill curves with GCV and ACV; type: cell-based; details: Table VIII
Source text: as §5

[13] = system: Rat C6 cells expressing TK mutant SR39; assay: Rat C6 kill curves with GCV and ACV; type: cell-based; details: Table VIII
Source text: as §5

[14] = system: Rat C6 cells expressing TK mutant 30; assay: Rat C6 kill curves with GCV and ACV; type: cell-based; details: Table VIII
Source text: as §5

[15] = system: Rat C6 cells expressing TK mutant 75; assay: Rat C6 kill curves with GCV and ACV; type: cell-based; details: Table VIII
Source text: as §5

[16] = system: Rat C6 cells expressing TK mutant SR11; assay: Rat C6 kill curves with GCV and ACV; type: cell-based; details: Table VIII
Source text: as §5

[17] = system: rat C6 cells expressing gmk/TK-trunc fusion protein; assay: Ganciclovir dose response curve, fusion protein against wild-type TK; type: cell-based; details: Figure 31; fusion protein being the superior one

| Compound | Km [1] | Km [2] | Km ([3]; double reciprocal plots) | kcat ([3]; per active site) | IC50 [4] | IC50 [5] | IC50 [6] | IC50 [7] | tumor reduction (tumor diameter, final tumor weight) [8] | tumor reduction (tumor diameter, final tumor weight) [9] | IC50 [10] | IC50 [11] | IC50 [12] | IC50 [13] | IC50 [14] | IC50 [15] | IC50 [16] | difference in IC50 between fusion protein and wild-type TK [17] |
| --- | --- | --- | --- | --- | --- | --- | --- | --- | --- | --- | --- | --- | --- | --- | --- | --- | --- | --- |
| Nc1nc2c(ncn2[C@@H]2O[C@H](COP(=O)(O)O)[C@@H](O)[C@H]2O)c(=O)[nH]1 [GMP] | 146 µM | 95 µM |  |  |  |  |  |  |  |  |  |  |  |  |  |  |  |  |
| Nc1nc2c(ncn2[C@H]2C[C@H](O)[C@@H](COP(=O)(O)O)O2)c(=O)[nH]1 [dGMP] | 359 µM | 218 µM |  |  |  |  |  |  |  |  |  |  |  |  |  |  |  |  |
| Nc1nc(O)c2ncn(COC(CO)CO)c2n1 [ganciclovir] |  |  | 10 µM | .050 s⁻¹ | 4400 nM | 18000 nM | 20000 nM | 470 nM | significant tumor reduction | significant tumor reduction | 5000 nM | 40 nM | 100 nM | 17 nM | 10 nM | > 1000 nM | 150 nM | 100 fold |
